Measurements reported in patent US7582762B2, “Salt and crystalline forms of (2R)-anti-5-{3-[4-(10,11-difluoromethanodibenzosuber-5-YL)piperazin-1-YL]-2-hydroxypropoxy}quinoline” (Eli Lilly and Company, priority 2001, dated 2009).
Entries after “also recorded” stand apart in the source; their conditions may differ. Structures can show the parent of a compound that is named as a salt.

What was measured:
[1] = Incorporation of organic solvents into the crystal lattice; format: physicochemical; conditions: compared with trihydrochloride salt/crystal (Form I)
[2] = Moisture sorption profile over relative humidity; format: physicochemical; conditions: over a wide range of relative humidity; compared with trihydrochloride salt/crystal (Form I)
[3] = Thermodynamic stability of salt and crystal forms; conditions: for thermodynamic stability relative to trihydrochloride (Form I): compared with trihydrochloride salt/crystal (Form I), hydrochloride

Cl.Cl.Cl.Cl.Cl.O[C@@H](COc1cccc2ncccc12)CN1CCN(C2c3ccccc3C3C(c4ccccc42)C3(F)F)CC1.O[C@@H](COc1cccc2ncccc12)CN1CCN(C2c3ccccc3C3C(c4ccccc42)C3(F)F)CC1 (stereo partly drawn) [2.5 salt, (2R)-anti-5-{3-[4-(10,11-difluoromethanodibenzosuber-5-yl)piperazin-1-yl]-2-hydroxypropoxy}quinoline 2.5 hydrochloride]
incorporation of organic solvents [1]: do not incorporate organic solvents as readily as the trihydrochloride salt and crystal | moisture sorption (water sorbed) [2]: sorb less water overall over a wide range of relative humidity

O[C@@H](COc1cccc2ncccc12)CN1CCN([C@@H]2c3ccccc3[C@@H]3[C@H](c4ccccc42)C3(F)F)CC1 [Form II, (2R)-anti-5-{3-[4-(10,11-difluoromethanodibenzosuber-5-yl)piperazin-1-yl]-2-hydroxypropoxy}quinoline 2.5 hydrochloride]
incorporation of organic solvents ([1]; hydrochloride): do not incorporate organic solvents as readily as Form I; also recorded: do not incorporate organic solvents as readily as the trihydrochloride salt and crystal | moisture sorption (water sorbed) [2]: sorb less water overall over a wide range of relative humidity | thermodynamic stability relative to trihydrochloride (Form I) [3]: thermodynamically more stable than Form I; also recorded: thermodynamically more stable than the trihydrochloride salt and crystal | most stable form ([3]; organic solutions and solid state at ambient temperature/relative humidity): most stable in organic solutions and in the solid state at ambient temperature/relative humidity

O[C@@H](COc1cccc2ncccc12)CN1CCN([C@@H]2c3ccccc3[C@@H]3[C@H](c4ccccc42)C3(F)F)CC1 [Form III, (2R)-anti-5-{3-[4-(10,11-difluoromethanodibenzosuber-5-yl)piperazin-1-yl]-2-hydroxypropoxy}quinoline 2.5 hydrochloride]
incorporation of organic solvents ([1]; hydrochloride): do not incorporate organic solvents as readily as Form I; also recorded: do not incorporate organic solvents as readily as the trihydrochloride salt and crystal | moisture sorption (water sorbed) [2]: sorb less water overall over a wide range of relative humidity | most stable form ([3]; aqueous and acidic media): most stable in aqueous and acidic media | thermodynamic stability relative to trihydrochloride (Form I) [3]: thermodynamically more stable than Form I; also recorded: thermodynamically more stable than the trihydrochloride salt and crystal
